{
  "source": "patent US12187758B2",
  "about": "(ROME Therapeutics, Inc., priority 2022, dated 2025)",
  "key": {"[1]": {"test_system": "interferon-stimulated gene (ISG) response", "test": "In vivo decitabine challenge model in C57BL/6 mice", "conditions": "kidneys, decitabine i.p. 5 mg/kg, compound 1, 10, 100 mg/kg p.o. once a day", "description": "Exemplary compounds were tested for ability to alter the interferon-stimulated gene (ISG) response in C57BL/6 mice treated with decitabine. Assay procedures and results are described below. Twenty 9-11 week old C57BL/6 mice were acclimated to the lab for at least 5 days. Compound 23 was prepared in a 0.5% methylcellulose solution for p.o. administration. Decitabine (Sigma-Aldrich) was dissolved in sterile PBS (pH 7.4) and dosed within 30 minutes of preparation of the solution. Doses of both the compound and decitabine were administered once a day, every day from Day 0 to Day 4. […] The fold changes in interferon-stimulated gene (ISG) expression was calculated by first normalizing to GAPDH gene using the Delta CT method. The CT (gene of interest) —CT (reference gene) was calculated to generate a delta CT for all samples. […] The fold changes in interferon-stimulated gene (ISG, specifically IRF7 and MX1) expression was calculated by first normalizing to GAPDH gene using the Delta CT method. The CT (gene of interest)−CT (reference gene) was calculated to generate a delta CT for all samples. The fold change was then calculated by taking the […](Delta CT(control)−Delta CT (experimental). The control in this example was the PBS control animal group. Individual primers were used to amplify target genes."}, "[2]": {"test_system": "THP1-Dual KO-TREX1 cells", "test": "THP1 TREX1 KO inhibition assay, combination dosing", "type": "cell-based", "conditions": "for pEC50: Homo sapiens, THP1-Dual, read-out: EC50 of Compound 2", "description": "Exemplary compounds were tested to determine the effect of combined dosing of two compounds on the type 1 interferon response in THP1 Dual TREX1 KO cells treated with 5-aza-2′-deoxycytidine. Assay procedures and results are described below.\nTHP1 Dual TREX1 KO cells were purchased from InvivoGen. The THP1-Dual™ KO-TREX1 cells were cultured in RPMI 1640, 10% heat-inactivated fetal bovine serum, 25 mM HEPES, 10 μg/mL blasticidin, and 100 μg/mL Zeocin. THP1-Dual™ KO-TREX1 cells were treated with a dose titration of test compound in the presence of 1 μM 5-aza-2′-deoxycytidine (Sigma, cat #189825). Type 1 Interferon and cell viability were assessed after five days of treatment.\nStock solution of test compounds stampidine and Compound 2 were prepared in DMSO followed by a three-fold dilution in DMSO. The plate was prepared with a matrix of test compound concentrations, with stampidine on the y-axis (final concentrations 3 μM to 0.0003 μM) and Compound 2 on the x-axis (final concentrations 0.3 μM to 0.00003 μM). Additional 50× dilution was prepared in cell culture media for each dilution. 10 μL of diluted test compound was then added to a 384-well plate.\nTHP1-Dual™ KO-TREX1 cells were treated with 1 μM 5-aza-2′-deoxycytidine. THP1-Dual™ KO-TREX1 cells (50 μL) were added to each well of the 384-well plate containing test compound titration at 10,000 cells/well. Cells were incubated at 37° C., 5% CO2 in a humidified incubator for five days. On day five, 20 μL of cell supernatant was transferred to a 384-well, white-walled plate, followed by addition to each well of 50 μL of QUANTI-LUC solution containing stabilizer. Luminescence was detected on a plate reader according to manufacturer's instructions. Percent inhibition of interferon was calculated using the following analysis: (Average DMSO-Sample)/(Average DMSO-Average 30 μM stampidine)*100.\nThe remaining cells were assessed for cell viability by adding 30 μl of CellTiter-Glo (Promega, G9683) solution to each well, and placed on a shaker for 10 minutes at room temperature. Luminescence was detected on a plate reader, according to manufacturer's instructions. Percent inhibition of cell viability using CellTiter-Glo was calculated using the following analysis: (Average DMSO−Sample)/(Average DMSO−Average 20 μM viability control reagent)*100.\nCombination analysis was performed using the Bivariate Response to Additive Interacting Doses (BRAID) according to Twarog, N. R., et al. Scientific Reports 6:25523 (DOI: 10.1038/srep25523). The best BRAID fit was determined to be k 2.00 (0.583-3.64), where k>0 denotes synergy, k=0 denotes additivity, and k<0 denotes antagonism. Potentiation modeling curves are provided for potentiation of Compound 2 at four concentrations of stampidine (FIG. 7A) and for potentiation of stampidine at four concentrations of Compound 2 (FIG. 7B)."}},
  "note": "pEC50: −log10 of the molar value. Where two headings read alike, the source gives them in different places.",
  "data": [
    {"compound": "Nc1ccn([C@H]2C[C@H](O)[C@](CO)(CCl)O2)c(=O)n1", "note": "[Compound 2, 4-amino-1-((2R,4S,5R)-5-(chloromethyl)-4-hydroxy-5-(hydroxymethyl)tetrahydrofuran-2-yl)pyrimidin-2(1H)-one]", "values": [
      {"measurement": "change in ISG response (IRF7 and MX1), FIGS. 2B and 2C", "setting": "[1]", "value": "shows a change in the ISG response"},
      {"measurement": "pEC50", "setting": "[2]; Stampidine 0 μM", "value": 7.40},
      {"measurement": "pEC50", "setting": "[2]; Stampidine 0.001 μM", "value": 7.47},
      {"measurement": "pEC50", "setting": "[2]; Stampidine 0.01 μM", "value": 7.69},
      {"measurement": "pEC50", "setting": "[2]; Stampidine 0.1 μM", "value": 9.82},
      {"measurement": "BRAID fit k (k>0 denotes synergy)", "setting": "[2]; combination of stampidine and Compound 2, 1 μM 5-aza-2′-deoxycytidine, five days", "value": "2.00 (0.583-3.64)"}
    ]}
  ]
}
